Test results published in EP0923529B1 (Bayer Corporation, priority 1996, dated 1997).
Like-named read-outs stand apart in the source and are kept apart here.

Columns and labels:
Assay type in all cases: biochemical
MMP-3 = molecular target: T1, MMP-3 (Homo sapiens, UniProt P08254); assay: P218 quenched fluorescence assay (MMP Microfluorometric Profiling Assay), MMP-3; settings: for IC50: P218 substrate 6 µM, 25 min at 37 °C, pH 6.5; for inhibition at 5 µM: inhibitor at 5 µM, given as I = x %
T1 construct: made in house; host or cells: CHO cells
Description: (§1) The P218 quenched fluorescence assay (Microfluorometric Profiling Assay) is a modification of that originally described by C. G. Knight et al., FEBS Letters, 296, 263-266 (1992) for a related substrate and a variety of matrix metalloproteinases (MMPs) in cuvettes. The assay was run with each exemplary compound of the invention and the three MMPs, MMP-3, MMP-9 and MMP-2, analyzed in parallel, adapted as follows for a 96-well microtitre plate and a Hamilton AT® workstation.
(§2) P218 is a synthetic substrate containing a 4-acetyl-7-methoxycoumarin (MCA) group in the N-terminal position and a 3-(2,4-dinitrophenyl)-(L)-2,3-diaminopropionyl (DPA) group internally. This is a modification of a peptide reported by Knight (1992) that was used as a substrate for matrix metalloproteinases. Once the P218 peptide is cleaved (putative clip site at the Ala-Leu bond), the fluorescence of the MCA group can be detected on a fluorometer with excitation at 328 nm and emission at 393 nm. P218 is currently being produced by BACHEM Bioscience, Inc. exclusively for the Bayer Corp. P218 has the structure: H-MCA-Pro-Lys-Pro-Leu-Ala-Leu-DPA-Ala-Arg-NH2 (MW 1332.2)
Recombinant Human CHO Pro-MMP-3: Human CHO pro-stromelysin-257 (pro-MMP-3) was expressed and purified as described by T. J. Housley et al., J. Biol. Chem., 268, 4481-4487 (1993).
Activation of Pro-MMP-3: Pro-MMP-3 at 1.72 µM (100 µg/mL) in an MMP-3 activation buffer consisting of 5 mM Tris at pH 7.5, 5 mM CaCl2, 25 mM NaCl, and 0.005% Brij-35 was activated by incubation with TPCK (N-tosyl-(L)-phenylalanine chloromethyl ketone) trypsin (1:100 w/w to pro-MMP-3) at 25 °C for 30 min. The reaction was stopped by addition of soybean trypsin inhibitor (SBTI; 5:1 w/w to trypsin concentration).
(§3) Hamilton Microlab AT Plus®: The MMP-profiling assay was performed robotically using a Hamilton MicroLab AT Plus®. The Hamilton was programmed to: (1) serially dilute up to 11 potential inhibitors automatically using a 2.5 mM stock solution of the inhibitor in 100% DMSO; (2) distribute substrate followed by inhibitor into a 96-well Cytofluor plate; and (3) add a single enzyme to the plate with mixing to start the reaction. Subsequent plates for each additional enzyme were prepared automatically by beginning the program at the substrate addition point, remixing the diluted inhibitors, and beginning the reaction by addition of enzyme. In this way, all MMP assays were done using the same inhibitor dilutions.
(§4) Millipore Cytofluor II: Following incubation, the plate was read on a Cytofluor II fluorometric plate reader with excitation at 340 nm and emission at 395 nm with the gain set at 80.
(§5) Microfluorometric Reaction Buffer (MRB): Dilutions of test compounds, enzymes and P218 substrate for the microfluorometric assay were made in microfluorometric reaction buffer (MRB) consisting of 50 mM 2-(N-morpholino)ethanesulfonic acid (MES) at pH 6.5 with 10 mM CaCl2, 150 mM NaCl, 0.005 % Brij-35 and 1% DMSO.
(§6) MMP Microfluorometric Profiling Assay. The assay was done with a final P218 concentration of 6 µM, approximately 0.5 to 0.8 nM of activated MMP (one MMP per 96-well plate), and with variable inhibitor concentrations. The Hamilton MicroLab AT Plus® was programmed to serially dilute up to 11 compounds from a 2.5 mM stock (100% DMSO) to 10-times the final compound concentrations in the assay. Initially, the instrument delivered various amounts of microfluorometric reaction buffer (MRB) to a 96-tube rack of 1 mL Marsh dilution tubes. The instrument picked up 20 µL inhibitor (2.5 mM) and mixed it with buffer in row A of the Marsh rack, resulting in a 50 µM inhibitor concentration. The inhibitors were then serially diluted to 10, 5, 1, 0.2, 0.05 and 0.01 µM. […] The instrument re-mixed and loaded 14.5 µL of diluted compound from rows A to G in the Marsh rack to the corresponding rows in the microtiter plate.

MMP-9 = molecular target: T2, MMP-9 (Homo sapiens, UniProt P14780); assay: P218 quenched fluorescence assay (MMP Microfluorometric Profiling Assay), MMP-9; settings: for IC50: P218 substrate 6 µM, 25 min at 37 °C, pH 6.5; for inhibition at 5 µM: read-out: MMP-9 % inhibition at 5 µM, inhibitor at 5 µM, given as I = x %
T2 construct: made in house
Description: as §1, §2
Human Recombinant Pro-MMP-9: Human recombinant pro-gelatinase B (pro-MMP-9) derived from U937 cDNA as described by S. M. Wilhelm et al., J. Biol. Chem., 264, 17213-17221 (1989) was expressed as the full-length form using a baculovirus protein expression system. The pro-enzyme was purified using methods previously described by M.S. Hibbs, et al., J. Biol. Chem., 260, 2493-500 (1984).
Activation of Pro-MMP-9 : Pro-MMP-9 (20 µg/mL) in an MMP-9 activation buffer consisting of 50 mM Tris at pH 7.4, 150 mM NaCl, 10 mM CaCl2 and 0.005% Brij-35 was activated by incubation with a 0.5 mM p-aminophenylmercuric acetate (APMA) for 3.5 h at 37 °C. The enzyme was dialyzed against the same buffer to remove APMA.
as §3, §4, §5
as §6, with “plate. […]” for “plate.”

MMP-2 = molecular target: T3, MMP-2 (Homo sapiens, UniProt P08253); assay: P218 quenched fluorescence assay (MMP Microfluorometric Profiling Assay), MMP-2; settings: for inhibition at 5 µM: read-out: MMP-2 % inhibition at 5 µM, inhibitor at 5 µM, given as I = x %
T3 sequence (P08253 110-660): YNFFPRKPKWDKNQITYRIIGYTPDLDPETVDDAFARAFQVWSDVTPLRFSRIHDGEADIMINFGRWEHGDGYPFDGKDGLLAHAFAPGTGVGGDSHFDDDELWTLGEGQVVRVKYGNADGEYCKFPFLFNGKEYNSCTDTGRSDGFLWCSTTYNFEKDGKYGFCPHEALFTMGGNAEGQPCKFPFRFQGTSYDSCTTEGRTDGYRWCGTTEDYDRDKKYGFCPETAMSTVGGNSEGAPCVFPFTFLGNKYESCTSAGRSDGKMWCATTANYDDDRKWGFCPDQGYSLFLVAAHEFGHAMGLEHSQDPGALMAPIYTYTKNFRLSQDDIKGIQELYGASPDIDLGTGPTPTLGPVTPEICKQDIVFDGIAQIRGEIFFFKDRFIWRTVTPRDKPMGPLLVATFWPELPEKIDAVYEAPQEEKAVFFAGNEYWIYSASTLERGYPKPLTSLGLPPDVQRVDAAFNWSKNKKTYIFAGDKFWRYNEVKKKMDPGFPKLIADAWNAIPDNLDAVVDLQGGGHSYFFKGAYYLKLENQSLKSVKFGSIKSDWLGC

[1] = P218 substrate 6 µM, 25 min at 37 °C, pH 6.5, read-out: MMP-2 IC50

T2 sequence (P14780 107-707 limits assumed): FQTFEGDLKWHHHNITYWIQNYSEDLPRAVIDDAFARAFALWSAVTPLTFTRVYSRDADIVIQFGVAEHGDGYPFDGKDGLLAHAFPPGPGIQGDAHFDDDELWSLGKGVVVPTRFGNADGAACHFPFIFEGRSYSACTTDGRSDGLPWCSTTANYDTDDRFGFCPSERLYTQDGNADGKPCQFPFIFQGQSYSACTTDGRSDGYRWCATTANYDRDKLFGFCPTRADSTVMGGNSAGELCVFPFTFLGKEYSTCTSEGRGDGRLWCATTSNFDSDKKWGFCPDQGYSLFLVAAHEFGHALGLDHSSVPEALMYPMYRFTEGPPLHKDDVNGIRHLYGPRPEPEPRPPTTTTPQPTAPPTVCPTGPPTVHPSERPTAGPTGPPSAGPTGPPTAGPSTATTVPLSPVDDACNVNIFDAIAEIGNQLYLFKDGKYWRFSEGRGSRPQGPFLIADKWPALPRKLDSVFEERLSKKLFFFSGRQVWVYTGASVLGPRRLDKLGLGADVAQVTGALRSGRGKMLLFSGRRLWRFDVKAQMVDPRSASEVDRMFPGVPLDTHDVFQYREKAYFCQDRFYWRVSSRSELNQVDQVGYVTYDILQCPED
T1 sequence (P08254 100-477): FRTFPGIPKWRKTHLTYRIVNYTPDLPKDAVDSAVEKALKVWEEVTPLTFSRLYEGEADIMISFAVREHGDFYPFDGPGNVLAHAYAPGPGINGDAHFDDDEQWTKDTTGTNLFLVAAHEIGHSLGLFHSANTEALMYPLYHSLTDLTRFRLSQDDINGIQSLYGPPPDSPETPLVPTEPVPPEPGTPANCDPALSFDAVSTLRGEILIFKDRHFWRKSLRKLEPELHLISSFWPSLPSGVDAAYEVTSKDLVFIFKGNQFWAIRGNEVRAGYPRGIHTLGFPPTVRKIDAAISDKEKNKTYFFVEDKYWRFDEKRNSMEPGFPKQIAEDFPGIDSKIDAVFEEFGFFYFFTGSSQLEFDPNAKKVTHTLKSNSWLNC

O=C(CC(CCCc1ccccc1)C(=O)O)c1ccc(C#CCO)cc1 (racemic) [Example 1, 4-(4-(3-hydroxyprop-1-ynyl)phenyl)-4-oxo-2-(3-phenylpropyl)butyric acid]
IC50 (MMP-3): 3300 nM
IC50 (MMP-9): 1850 nM
IC50 (MMP-2; [1]): 485 nM

O=C(CC(CCN1C(=O)c2ccccc2C1=O)C(=O)O)c1ccc(Br)cc1 (stereo not shown) [Compound B, 4-(4-bromophenyl)-4-oxo-2-(2-phthalimidoethyl) butyric acid, reference compound]
inhibition at 5 µM (MMP-3): 46%
IC50 (MMP-9): 1450 nM
IC50 (MMP-2): 2400 nM

O=C(CC(CCCc1ccccc1)C(=O)O)c1ccccc1 (stereo not shown) [Compound C, 4-phenyl-4-oxo-2-(3-phenylpropyl)butyric acid, reference compound]
inhibition at 5 µM (MMP-3): 20%
inhibition at 5 µM (MMP-9): 23%
inhibition at 5 µM (MMP-2): 36%

O=C(CC(CCN1C(=O)c2ccccc2C1=O)C(=O)O)c1ccccc1 (stereo not shown) [Compound D, 4-phenyl-4-oxo-2-(2-phthalimidoethyl)butyric acid, reference compound]
IC50 (MMP-3): 5000 nM
IC50 (MMP-9): 1000 nM
IC50 (MMP-2): 1400 nM

CC(C)(C)[Si](C)(C)OCCCCC#Cc1ccc(C(=O)CC(CCN2C(=O)c3ccccc3C2=O)C(=O)O)cc1 (stereo not shown) [Compound E, reference compound]
IC50 (MMP-3): 5100 nM
IC50 (MMP-9): 5050 nM
IC50 (MMP-2; [1]): 1450 nM

CCCCCCCCCCCCCCOc1ccc(C(=O)CC(CCN2C(=O)c3ccccc3C2=O)C(=O)O)cc1 (stereo not shown) [Compound F, 4-(4-tetradecyloxyphenyl)-4-oxo-2-(2-phthalimidoethyl)butyric acid, reference compound]
inhibition at 5 µM (MMP-3): 18%
inhibition at 5 µM (MMP-9): 6%
inhibition at 5 µM (MMP-2): 16%

COc1ccc(C(=O)CC(CCN2C(=O)c3ccccc3C2=O)C(=O)O)cc1 (stereo not shown) [Compound G, 4-(4-methoxyphenyl)-4-oxo-2-(2-phthalimidoethyl)butyric acid, reference compound]
inhibition at 5 µM (MMP-3): 29%
inhibition at 5 µM (MMP-9): 46%
inhibition at 5 µM (MMP-2): 48%

CCCCC#Cc1ccc(C(=O)CC(CCCc2ccccc2)C(=O)O)cc1 (stereo not shown) [Example 2, 4-(4-(hex-1-ynyl)phenyl)-4-oxo-2-(3-phenylpropyl)butyric acid]
IC50 (MMP-3): 1870 nM
IC50 (MMP-9): 1570 nM
IC50 (MMP-2): 460 nM

O=C(CC(CCCc1ccccc1)C(=O)O)c1ccc(C#CCCCCO)cc1 (stereo not shown) [Example 3, 4-(4-(6-hydroxyhex-12-ynyl)phenyl)-4-oxo-2-(3-phenylpropyl)butyric acid]
inhibition at 5 µM (MMP-3): 43%
IC50 (MMP-9): 4350 nM
IC50 (MMP-2; [1]): 640 nM

CCCCC#Cc1ccc(C(=O)CC(CCN2C(=O)c3ccccc3C2=O)C(=O)O)cc1 (stereo not shown) [Example 4]
IC50 (MMP-3): 125 nM
IC50 (MMP-9): 20 nM
IC50 (MMP-2): 42 nM

O=C(CC(CCN1C(=O)c2ccccc2C1=O)C(=O)O)c1ccc(C#CCCCCO)cc1 (stereo not shown) [Example 5, 4-(4-(6-hydroxyhex-1-ynyl)phenyl)-4-oxo-2-(2-phthalimidoethyl)butyric acid]
IC50 (MMP-3): 870 nM
IC50 (MMP-9): 150 nM
IC50 (MMP-2): 92 nM

O=C(CC(CCN1C(=O)c2ccccc2C1=O)C(=O)O)c1ccc(C#CCO)cc1 (stereo not shown) [Example 6, 4-(4-(3-hydroxyprop-1-ynyl)phenyl)-4-oxo-2-(2-phthalimidoethyl)butyric acid]
IC50 (MMP-3): 565 nM
IC50 (MMP-9): 76 nM
IC50 (MMP-2): 130 nM

CCCCCCc1ccc(C(=O)CC(CCN2C(=O)c3ccccc3C2=O)C(=O)O)cc1 (stereo not shown) [Example 7, 4-(4-hexylphenyl)-4-oxo-2-(2-phthalimidoethyl) butyric acid]
IC50 (MMP-3): 1040 nM
IC50 (MMP-9): 400 nM
IC50 (MMP-2): 295 nM

CCCCCCCOc1ccc(C(=O)CC(CCN2C(=O)c3ccccc3C2=O)C(=O)O)cc1 (stereo not shown) [Example 10, 4-(4-heptyloxyphenyl)-4-oxo-2-(2-phthalimidoethyl) butyric acid]
IC50 (MMP-3): 61 nM
IC50 (MMP-9): 85 nM
IC50 (MMP-2): 40 nM

CCCCCCOc1ccc(C(=O)CC(CCN2C(=O)c3ccccc3C2=O)C(=O)O)cc1 (stereo not shown) [Example 11, 4-(4-hexyloxyphenyl)-4-oxo-2-(2-phthalimidoethyl) butyric acid]
IC50 (MMP-3): 114 nM
IC50 (MMP-9): 68 nM
IC50 (MMP-2): 79 nM

CCCCCCCCCCOc1ccc(C(=O)CC(CCN2C(=O)c3ccccc3C2=O)C(=O)O)cc1 (stereo not shown) [Example 12, 4-(4-decyloxyphenyl)-4-oxo-2-(2-phthalimidoethyl) butyric acid]
IC50 (MMP-9): 360 nM

O=C(CC(CCN1C(=O)c2ccccc2C1=O)C(=O)O)c1ccc(OCCOCc2ccccc2)cc1 (stereo not shown) [Example 13, 4-(4-(2-benzyloxyethoxy)phenyl)-4-oxo-2-(2-phthalimidoethyl)butyric acid]
IC50 (MMP-3): 82 nM
IC50 (MMP-9): 355 nM
IC50 (MMP-2): 53 nM
